Experimental data: patent publication US20080206198A1, “Compounds and methods for pharmico-gene therapy of epithelial sodium channel associated disorders” (priority 2003, published 2008)
Structures can show the parent of a compound that is named as a salt. Peptide text beside a SMILES is read from it.

Columns and labels:
[1] = tested on: primary human fibroblasts; format: cell-based; conditions: confluent primary human fibroblasts treated prior to rAAV infection; FACS at 96 hours post-infection
Experimental: Initial studies were performed in confluent primary human fibroblasts since dose titrations and toxicity could be quickly assessed. Selected agents were used to treat fibroblast monolayers prior to rAAV infection. rAAV transduction was assessed at 96 hours post-infection by FACS analysis, and the percentage of dead cells was simultaneously assessed by incorporation of propidium iodide.
These tripeptides are structurally related to chloroquine but have different lipid solubility and specificity for cysteine proteases (Seglen, 1983). These molecules decrease endosomal degradation of molecules by a mechanism different than altering pH.

[2] = tested on: polarized human airway epithelial cells; conditions: hypotonic EGTA solution alone; cited from earlier work
[3] = tested on: polarized human airway epithelial cells; format: cell-based; conditions: for rAAV transduction from the basolateral surface: both ubiquitin ligase inhibitors combined, 2 mM pretreatment, 0.2 mM during infection; for rAAV transduction from the apical surface: data not shown
Experimental: Primary culture of human bronchial epithelia and reagents utilized. Primary human airway epithelial cells were collected by enzymatic digestion of bronchial samples from lung transplants, as previously described (Kondo et al., 1991; Zabner et al., 1996). Isolated primary airway cells were seeded at a density of 5×10^5 cells/cm^2 onto collagen-coated Millicell-HA culture inserts (Millipore Corp., Bedford, Mass.). Primary cultures were grown at the air-liquid interface for more than 2 weeks, by which time differentiation into a mucociliary epithelium occurs. The culture medium, used to feed only the basolateral side of the cells, contained 49% DMEM, 49% Ham's F12 and 2% Ultraser G (BioSepra, Cedex, France). Dimethyl Sulphoxide (DMSO), camptothecin (Camp), etoposide (Etop), aphidicolin (Aphi), hydroxyurea (HU) and genistein (Geni) were purchased from Sigma (St. Louis, Mo.). Tripeptidyl aldehyde proteasome inhibitors N-Acetyl-L-Leucyl-L-Leucyl-Norleucine (LLnL) and benzyloxycarbonyl-L-leucyl-L-leucyl-L-leucinal (Z-LLL) were purchased from Calbiochem-Novabiochem Corporation (La Jolla, Calif.). Ubiquitin ligase (E3) inhibitors were obtained from Bachem Bioscience Inc. (King of Prussia, Pa.). Anti-AAV capsid monoclonal antibody (Anti-VP1, 2 and 3) was purchased from American Research Products (Belmont, Mass.) and anti-ubiquitin antibody was purchased from Santa Cruz Biotechnology Inc. (Santa Cruz, Calif.).
Transduction of polarized airway epithelial cells and primary human fibroblasts. rAAV infection of fully differentiated bronchial cells was performed as described in Duan et al. (1998). For infections from the apical surface of the airway cells, 5 μl rAAV was mixed with 50 μl of culture media and applied directly onto the apical compartment of Millicell inserts (MOI=10,000 particles/cell). During apical infection, the basolateral side of the Millicell was continuously bathed in culture media. Gene transfer to the basal side was performed by inverting Millicell inserts and applying viral vector to the bottom of the supporting filter membrane in a 50 μl volume for 2 hours. Subsequently, Millicell inserts were returned to the upright position, in the continued presence of the original viral inoculum plus an additional 450 μl of media. For both apical and basolateral infections, rAAV containing media was removed after 24 hours and replaced with either fresh culture media (for the basal side) or exposed to air (for the apical side). To test the effect of different agents on the efficiency of AAV transduction in polarized airway cells, 1 μl of each solution was mixed with AAV prior to infection of airway epithelia. Agents were usually presented during the 24 hours AAV infection period unless indicated otherwise. Most of the agents were dissolved in DMSO except for hydroxyurea (dissolved in phosphate buffered saline), H-Leu-Ala-OH (dissolved in 0.9% glacial acetic acid) and H-His-Ala-OH (dissolved in 50% methanol). The working concentrations of the agents were as follows: 0.1 μM camptothecin, 10 μM etoposide, 5 μg/ml aphidicolin, 40 mM hydroxyurea, 50 μM genistein, 40 μM LLnL and 4 μM Z-LLL. When the ubiquitin ligase (E3) inhibitors (H-Leu-Ala-OH and H-His-Ala-OH) were used, airway cells were pretreated with a combination of both inhibitors at a final concentration of 2 mM for 60 minutes prior to infection, followed by the continued presence of inhibitor (0.2 mM) during the entire 24 hours infection period from the basolateral surface. Studies involving EGTA treatment were performed by transiently treating the apical membrane of polarized airway epithelia with 3 mM EGTA in water for 10 minutes (Duan et al., 1998). Following hypotonic EGTA treatment, cultures were washed twice with culture medium and infected with rAAV in the presence or absence of 40 μM LLnL. Human primary fibroblast cells (P4) were maintained in 10% fetal bovine serum (FBS), 1% penicillin and streptomycin, and 89% DMEM. […]

[4] = tested on: HeLa cells; test: AAV2 FLAG-Luc transduction of HeLa cells (luciferase screen); format: cell-based, human
Text: A. To screen for agents that enhance rAAV transduction, any number of cells can be used. A range of concentrations of the agent to be tested can be determined based on, for instance desirable profiles of the agent, desirable toxicity profiles of the agent and/or concentration of the agents employed in vivo. The usefulness of the cell type chosen for the screen can be confirmed by testing compounds, e.g., proteasome inhibitors such as LLnL and ZLL which are known to increase rAAV transduction. For example, a AAV2 FLAG-Luc vector was employed to transduce HeLa, ferret fibroblasts, IB3 and Huh (liver) cells in the presence or absence of the proteasome inhibitor MG132. MG132 was confirmed to enhance AAV transduction in all cell types tested: HeLa cell transduction was enhanced about 500-fold at 80 μM, and 200-fold at 40 μM, MG132; ferret fibroblast cell transduction was enhanced about 200-fold at 20 μM, and 17-fold at 4 μM, MG132; IB3-1 cell transduction was enhanced about 30 to 70-fold at 20 to 80 μM MG132; and Huh-7 cell transduction was enhanced about 15-fold at 20 to 80 μM MG132. There was no difference in rAAV transduction efficiency in HeLa cells when either DMSO or ETOH was used as a vehicle for MG132. B. HeLa cells were selected to screen for additional agents that enhance rAAV transduction, although any cell strain or line; or primary cells, may be employed. […] The range of concentrations of the agents to be tested were selected based on solubility profiles, toxicity profiles and/or concentrations previously employed in vivo.
HeLa cells were infected for 2 hours with an MOI of 100 rAAV in the presence of agents, e.g., ritonavir (Norvir) (1, 10 and 100 μM), cyclosporin A (2.5, 25 and 250 μg/ml), epoxomicin (1, 10 and 50 μM), alcacinomycin A (5, 50 or 500 μM), chymostatin (1, 10 and 100 μM), bestatin (1, 10 and 100 μM), doxorubicin (adriamycin) (0.1, 1 and 10 μM), camptothecin (camptosar) (1, 10 and 100 μM), eicosapentanoic acid (1, 10 and 100 μM), tannic acid (2, 20, 200 and 2000 μM), simvastatin, prodrug (2, 20 and 200 μM), cisplatin (0.2, 2 and 20 μg/mL), and chloroquine (4, 40 and 400 μM). Forty-eight hours after infection, cells were harvested for analysis. rAAV transduction was measured by removing the media from the cell cultures, adding 100 μL reporter lysis buffer (RLB) and freezing. The supernatant was thawed and transferred to microfuge tubes, freeze thawed an additional 2 times, clarified by centrifugation for 10 minutes and then analyzed for reporter gene expression on the lumometer. Protein was determined by Bradford analysis and results were expressed as relative light units per mg protein (RLU/mg).
Based on results with doxorubicin, a small number of FDA approved anthracyclines were tested for their relative in vitro and in vivo activities on AAV transduction. HeLa cells were infected with 100 ppc AAV2FLAG-Luc for 2 hours in the presence of different anthracyclines, e.g., doxorubicin, daunarubicin (Cerubidine), epirubicin (Ellence™), and idarubicin (Idamycin®), and cells harvested 48 hours later. The anthracyclines were pharmaceutical grade, and prepared according to the manufacturer's instructions. Prior to use, the agents were diluted in sterile water to an equal mass, e.g., 0.6 μg/mL, 3 μg/mL and 6 μg/mL. For example, 3 μg/mL idamycin increased luciferase expression by over 5000-fold while doxorubin increased luciferase expression by 58-fold. Generally, the potency was as follows: idarubicin>daunarubicin>epirubicin>doxorubicin.

[5] = tested on: mouse lung; test: Intranasal AAV2-Luc with anthracyclines in Balb/c mice (lung luciferase); format: in vivo; conditions: 10% HDE intranasal, day 7
Text: (§1) Animals were followed for seven days post dose.
The dose of modulator was based on the Human Dose Equivalent (HDE) and is summarized below in Table 4. For intranasal dose administration, the dose was held constant at 10% of the HDE.
On the day of sacrifice, the left lung was clamped off at the level of the extrapulmonary bronchi, removed and frozen on dry ice. The left lung was homogenized and processed for luciferase expression using Promega's luciferase assay system (Madison, Wis.). Luminescence was measured using the Berthold AutoLumat LB953 instrument. Samples were normalized for total protein using Pierce's Coomassie Plus Protein Assay Reagent (Rockford, Ill.).

[6] = tested on: Balb/c mice; test: Safety of anthracyclines in Balb/c mice; format: in vivo, mouse; conditions: intranasal, 10% HDE
Text: as §1
Safety endpoints included morbidity and mortality, clinical observations, body weights, gross necropsy observations and histopathology. Transduction endpoints included luciferase and GFP analysis.

SMILES: C[C@H]1CCC/C=C/[C@@H]2C[C@H](O)C[C@H]2[C@H](O)/C=C/C(=O)O1 [BFA, brefeldin A]
- rAAV transduction [1]: significant enhancement of rAAV transduction

SMILES: O=C(O)CN(CCOCCOCCN(CC(=O)O)CC(=O)O)CC(=O)O [EGTA]
- increase of AAV transduction from the apical surface [2]: 7 to 10 fold

SMILES: C[C@H](NC(=O)[C@@H](N)Cc1cnc[nH]1)C(=O)O [H-His-Ala-OH] (H-His-Ala-OH)
- rAAV transduction from the basolateral surface [3]: enhanced rAAV transduction from the basolateral surface

SMILES: CC(C)C[C@H](N)C(=O)N[C@@H](C)C(=O)O [H-Leu-Ala-OH] (H-Leu-Ala-OH)
- rAAV transduction from the basolateral surface [3]: enhanced rAAV transduction from the basolateral surface

SMILES: CC(=O)[C@]1(O)Cc2c(O)c3c(c(O)c2[C@@H](O[C@H]2C[C@H](N)[C@H](O)[C@H](C)O2)C1)C(=O)c1ccccc1C3=O [Idamycin, idarubicin]
- increase in luciferase expression ([4]; 3 μg/mL, 100 ppc AAV2FLAG-Luc, harvest 48 hours): over 5000 fold
- order of potency among anthracyclines ([4]; 0.6, 3 and 6 μg/mL): idarubicin>daunarubicin>epirubicin>doxorubicin
- Fold Increase in luciferase expression ([5]; both sexes): 90
- luciferase expression, Average ([5]; both sexes): 5.06E+05
- Fold Increase in luciferase expression ([5]; female): 57
- luciferase expression, Average ([5]; female): 2.02E+05
- Fold Increase in luciferase expression ([5]; male): 111
- luciferase expression, Average ([5]; male): 8.11E+05
- mortality and clinical observations ([6]; 7 days): early mortality of some animals, ruffled hair coats and sick mice
- body weight ([6]; over the week): lost considerable body weight

SMILES: Cl.N [NH4Cl]
- rAAV transduction [1]: significantly inhibited rAAV transduction

SMILES: CC[C@@]1(O)C(=O)OCc2c1cc1n(c2=O)Cc2cc3ccccc3nc2-1 [camptothecin]
- rAAV transduction from the apical surface [3]: none of these agents facilitated rAAV transduction from the apical surface
- increase in transduction efficiency ([4]; at the doses tested, MOI 100, 2 hours infection, harvest 48 hours): 15 fold
- dose dependence of transduction ([4]; dose ranges tested): dose-dependent increase in transduction

SMILES: CCN(CC)CCCC(C)Nc1ccnc2cc(Cl)ccc12 (stereo not drawn) [chloroquine]
- rAAV transduction [1]: significantly inhibited rAAV transduction

SMILES: C=C1[C@@H](C)[C@H]2[C@H](Cc3ccccc3)NC(=O)[C@]23OC(=O)/C=C/[C@H](O)CCC[C@@H](C)C/C=C/[C@H]3[C@@H]1O [cytochalasin B]
- rAAV transduction [1]: significant decrease in rAAV transduction

SMILES: COc1cc([C@@H]2c3cc4c(cc3[C@@H](O[C@@H]3O[C@@H]5CO[C@@H](C)O[C@H]5[C@H](O)[C@H]3O)[C@H]3COC(=O)[C@H]23)OCO4)cc(OC)c1O [etoposide]
- rAAV transduction from the apical surface [3]: none of these agents facilitated rAAV transduction from the apical surface

SMILES: O=c1c(-c2ccc(O)cc2)coc2cc(O)cc(O)c12 [genistein]
- rAAV transduction from the apical surface [3]: none of these agents facilitated rAAV transduction from the apical surface

SMILES: NC(=O)NO [hydroxyurea]
- rAAV transduction from the apical surface [3]: none of these agents facilitated rAAV transduction from the apical surface

SMILES: CC[C@]1(O)C[C@@H]2CN(CCc3c([nH]c4ccccc34)[C@@](C(=O)OC)(c3cc4c(cc3OC)N(C)[C@H]3[C@@](O)(C(=O)OC)[C@H](OC(C)=O)[C@]5(CC)C=CCN6CC[C@]43[C@@H]65)C2)C1 [vinblastine, vinblastine sulfate]
- rAAV transduction [1]: little effect on rAAV transduction
